Laboratory results reported in patent US20120270237A9, “METHODS FOR THE IDENTIFICATION OF KINASE INTERACTING MOLECULES AND FOR THE PURIFICATION OF KINASE PROTEINS” (Cellzone AG, priority 2009, published 2012).

What was measured:
Assay in all cases: Kinobeads competition binding, HeLa Placenta lysate mix
Parameters in all cases: capturing and identification of kinases from mixed HeLa placenta lysates; endogenous in cells; host or cells: mixed lysate of HeLa cells and placenta tissue
Conditions in all cases: 10 μM free compound
[1] = molecular target: Erk2 (Homo sapiens, UniProt P28482)
Method: (§1) To one aliquot of cell lysate 10 μM of the free compound (FIG. 3, CZC31326) was added and allowed to bind to proteins in the lysate. Then the affinity matrix with the immobilized compound was added to capture proteins that were not interacting with the previously added free compound. Beads were separated from the lysate and bead bound proteins were eluted in SDS sample buffer and subsequently separated by SDS-Polyacrylamide gel electrophoresis (FIG. 10). Suitable gel bands were cut out and subjected to in-gel proteolytic digestion with trypsin. The second lysate aliquot was processed identically, however no free compound was added (DMSO solvent control). Peptides originating from samples 1 and 2 were labeled with iTRAQ reagents (iTRAQ 114 and iTRAQ 117) and the combined samples were analyzed with a nano-flow liquid chromatography system coupled online to a tandem mass spectrometer (LC-MS/MS) experiment followed by iTRAQ reporter ion quantification in the MS/MS spectra as described in Example 2.

[2] = molecular target: T1, MAP2K5 (Homo sapiens, UniProt Q13163)
T1 sequence (Q13163 1-448): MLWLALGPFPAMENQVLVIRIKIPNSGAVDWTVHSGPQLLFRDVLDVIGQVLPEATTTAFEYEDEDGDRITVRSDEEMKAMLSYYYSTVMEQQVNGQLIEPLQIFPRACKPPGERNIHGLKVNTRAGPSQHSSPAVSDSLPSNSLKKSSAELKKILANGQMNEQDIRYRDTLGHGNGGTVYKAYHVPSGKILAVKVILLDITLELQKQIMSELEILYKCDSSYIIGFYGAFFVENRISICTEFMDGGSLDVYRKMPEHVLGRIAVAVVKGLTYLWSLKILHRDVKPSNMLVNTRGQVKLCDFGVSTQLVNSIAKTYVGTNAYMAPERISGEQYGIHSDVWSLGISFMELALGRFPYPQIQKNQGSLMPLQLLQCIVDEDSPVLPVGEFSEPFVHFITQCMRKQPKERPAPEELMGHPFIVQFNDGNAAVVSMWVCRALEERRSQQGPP
Method: as §1

[3] = molecular target: T2, GCK (Homo sapiens, UniProt Q12851)
T2 sequence (Q12851 1-820): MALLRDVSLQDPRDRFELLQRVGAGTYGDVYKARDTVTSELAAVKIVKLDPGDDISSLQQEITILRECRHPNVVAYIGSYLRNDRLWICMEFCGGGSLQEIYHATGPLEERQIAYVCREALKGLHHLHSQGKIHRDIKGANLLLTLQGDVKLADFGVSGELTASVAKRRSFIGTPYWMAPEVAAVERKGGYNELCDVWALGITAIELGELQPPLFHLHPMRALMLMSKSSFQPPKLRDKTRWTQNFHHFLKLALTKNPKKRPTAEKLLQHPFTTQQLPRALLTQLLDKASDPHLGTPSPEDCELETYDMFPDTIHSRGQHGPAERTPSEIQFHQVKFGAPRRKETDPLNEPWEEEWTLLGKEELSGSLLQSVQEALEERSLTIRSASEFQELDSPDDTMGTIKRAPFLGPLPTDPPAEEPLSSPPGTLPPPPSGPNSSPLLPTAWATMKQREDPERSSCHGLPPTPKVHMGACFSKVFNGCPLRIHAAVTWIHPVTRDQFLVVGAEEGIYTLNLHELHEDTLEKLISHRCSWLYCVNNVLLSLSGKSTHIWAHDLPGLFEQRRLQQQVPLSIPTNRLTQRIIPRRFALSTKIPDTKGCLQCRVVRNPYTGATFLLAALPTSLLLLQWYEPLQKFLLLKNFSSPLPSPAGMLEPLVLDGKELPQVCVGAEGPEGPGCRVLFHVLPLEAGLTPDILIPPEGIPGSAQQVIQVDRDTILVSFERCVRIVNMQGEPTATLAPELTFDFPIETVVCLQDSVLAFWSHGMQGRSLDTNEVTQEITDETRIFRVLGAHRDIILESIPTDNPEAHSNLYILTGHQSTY
Method: as §1

[4] = molecular target: MLK3 (Homo sapiens, UniProt Q16584)
Method: as §1

Erk2, sequence (P28482 whole entry): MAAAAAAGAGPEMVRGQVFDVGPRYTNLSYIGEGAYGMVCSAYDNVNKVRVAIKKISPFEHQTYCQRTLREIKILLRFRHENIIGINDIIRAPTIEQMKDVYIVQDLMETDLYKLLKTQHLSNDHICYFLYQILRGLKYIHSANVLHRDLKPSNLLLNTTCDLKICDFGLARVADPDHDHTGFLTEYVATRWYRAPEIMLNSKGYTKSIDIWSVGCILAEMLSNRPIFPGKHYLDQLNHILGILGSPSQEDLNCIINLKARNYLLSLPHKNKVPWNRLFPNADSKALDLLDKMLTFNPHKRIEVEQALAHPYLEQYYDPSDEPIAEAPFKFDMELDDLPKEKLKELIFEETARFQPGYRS
MLK3, sequence (Q16584 whole entry): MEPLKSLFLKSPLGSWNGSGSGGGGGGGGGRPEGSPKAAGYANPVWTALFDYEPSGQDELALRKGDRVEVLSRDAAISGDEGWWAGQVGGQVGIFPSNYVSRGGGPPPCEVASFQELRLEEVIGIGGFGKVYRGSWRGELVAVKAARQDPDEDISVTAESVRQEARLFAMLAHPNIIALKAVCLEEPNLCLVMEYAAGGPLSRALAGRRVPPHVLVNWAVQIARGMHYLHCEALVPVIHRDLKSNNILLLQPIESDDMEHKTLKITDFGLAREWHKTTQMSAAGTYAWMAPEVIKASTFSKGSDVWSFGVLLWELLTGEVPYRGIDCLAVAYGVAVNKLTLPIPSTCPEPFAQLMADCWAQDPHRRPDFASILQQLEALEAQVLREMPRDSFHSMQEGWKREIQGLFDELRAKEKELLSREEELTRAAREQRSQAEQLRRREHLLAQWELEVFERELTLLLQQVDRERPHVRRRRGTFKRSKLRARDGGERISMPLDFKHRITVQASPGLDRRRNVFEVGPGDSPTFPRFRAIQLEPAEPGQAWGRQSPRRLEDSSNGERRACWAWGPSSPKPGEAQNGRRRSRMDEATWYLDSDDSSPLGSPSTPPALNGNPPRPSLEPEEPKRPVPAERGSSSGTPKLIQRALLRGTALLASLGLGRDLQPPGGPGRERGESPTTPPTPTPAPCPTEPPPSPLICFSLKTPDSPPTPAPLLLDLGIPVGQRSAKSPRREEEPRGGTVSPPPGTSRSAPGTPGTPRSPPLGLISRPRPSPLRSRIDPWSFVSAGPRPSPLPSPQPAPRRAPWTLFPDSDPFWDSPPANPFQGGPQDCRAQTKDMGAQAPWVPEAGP

inhibition at 10 µM [1]: 68.5%
inhibition at 10 µM [2]: 90.4%
inhibition at 10 µM [3]: 93.8%
Competition % [4]: 93.8%
Structure (SMILES): CS(=O)(=O)Nc1ccccc1Nc1nc(Nc2cccc(OCCN)c2)ncc1Cl [CZC31326, N-(2-(2-(3-(2-aminoethoxy)phenylamino)-5-chloropyrimidin-4-ylamino)phenyl)methanesulfonamide]
